Active and inactive are the calls of the source.
What was measured:
[1] = molecular target: 5-hydroxytryptamine receptor 2B (Homo sapiens, UniProt P41595); assay: GPCRScan assay: inhibition of 5-HT2B; parameters: radioligand conc. used [nm] 1.0 – 2.0, parental cells stable HEK
[2] = IFNalpha human whole blood assay; assay type: tissue-based
[3] = molecular target: Activin receptor type-1B (Homo sapiens) (UniProt P36896); assay: ACVR1B Kinase panel; conditions: Compound concentration 1.0 uM
[4] = molecular target: Mitogen-activated protein kinase kinase kinase 5 (Homo sapiens) (UniProt Q99683); assay: ASK1 Kinase panel; conditions: Compound concentration 1.0 uM
[5] = molecular target: Tyrosine-protein kinase ABL1 (Homo sapiens) (UniProt P00519); assay: Abl Kinase panel; conditions: Compound concentration 1.0 uM
[6] = molecular target: Aurora kinase B (Homo sapiens) (UniProt Q96GD4); assay: Aurora_B Kinase panel; conditions: Compound concentration 1.0 uM
[7] = molecular target: Serine/threonine-protein kinase B-raf (Homo sapiens) (UniProt P15056); assay: B-Raf Kinase panel; conditions: Compound concentration 1.0 uM
[8] = molecular target: Tyrosine-protein kinase BTK (Homo sapiens) (UniProt Q06187); assay: BTK Kinase panel; conditions: Compound concentration 1.0 uM
[9] = molecular target: Serine/threonine-protein kinase BRSK1 (Homo sapiens) (UniProt Q8TDC3); assay: BrSK1 Kinase panel; conditions: Compound concentration 1.0 uM
[10] = molecular target: Protein-tyrosine kinase 6 (Homo sapiens) (UniProt Q13882); assay: Brk Kinase panel; conditions: Compound concentration 1.0 uM
[11] = molecular target: Serine/threonine-protein kinase Chk1 (Homo sapiens) (UniProt O14757); assay: CHK1 Kinase panel; conditions: Compound concentration 1.0 uM
[12] = molecular target: Casein kinase I isoform alpha (Homo sapiens) (UniProt P48729); assay: CK1_alpha1 Kinase panel; conditions: Compound concentration 1.0 uM
[13] = molecular target: Casein kinase I isoform delta (Homo sapiens) (UniProt P48730); assay: CK1_delta Kinase panel; conditions: Compound concentration 1.0 uM
[14] = molecular target: Dual specificity protein kinase CLK1 (Homo sapiens) (UniProt P49759); assay: CLK1 Kinase panel; conditions: Compound concentration 1.0 uM
[15] = molecular target: Dual specificity protein kinase CLK4 (Homo sapiens) (UniProt Q9HAZ1); assay: CLK4 Kinase panel; conditions: Compound concentration 1.0 uM
[16] = molecular target: Ephrin type-B receptor 3 (Homo sapiens) (UniProt P54753); assay: EphB3 Kinase panel; conditions: Compound concentration 1.0 uM
[17] = molecular target: Glycogen synthase kinase-3 alpha (Homo sapiens) (UniProt P49840); assay: GSK3_alpha Kinase panel; conditions: Compound concentration 1.0 uM
[18] = molecular target: Glycogen synthase kinase-3 beta (Homo sapiens) (UniProt P49841); assay: GSK3_beta Kinase panel; conditions: Compound concentration 1.0 uM
[19] = molecular target: Homeodomain-interacting protein kinase 4 (Homo sapiens) (UniProt Q8NE63); assay: HIPK4 Kinase panel; conditions: Compound concentration 1.0 uM
[20] = molecular target: Megakaryocyte-associated tyrosine-protein kinase (Homo sapiens) (UniProt P42679); assay: Hyl Kinase panel; conditions: Compound concentration 1.0 uM
[21] = molecular target: Insulin-like growth factor 1 receptor (Homo sapiens) (UniProt P08069); assay: IGF1R Kinase panel; conditions: Compound concentration 1.0 uM
[22] = molecular target: Interleukin-1 receptor-associated kinase 4 (Homo sapiens) (UniProt Q9NWZ3); assay: IRAK4 Kinase panel; conditions: Compound concentration 1.0 uM
[23] = molecular target: Mast/stem cell growth factor receptor Kit (Homo sapiens) (UniProt P10721); assay: Kit Kinase panel; conditions: Compound concentration 1.0 uM
[24] = molecular target: MAP kinase-activated protein kinase 3 (Homo sapiens) (UniProt Q16644); assay: MAPKAPK3 Kinase panel; conditions: Compound concentration 1.0 uM
[25] = molecular target: MAP kinase-interacting serine/threonine-protein kinase 2 (Homo sapiens) (UniProt Q9HBH9); assay: MKNK2 Kinase panel; conditions: Compound concentration 1.0 uM
[26] = molecular target: Ribosomal protein S6 kinase alpha-5 (Homo sapiens) (UniProt O75582); assay: MSK1 Kinase panel; conditions: Compound concentration 1.0 uM
[27] = molecular target: Hepatocyte growth factor receptor (Homo sapiens) (UniProt P08581); assay: Met Kinase panel; conditions: Compound concentration 1.0 uM
[28] = molecular target: Serine/threonine-protein kinase Nek4 (Homo sapiens) (UniProt P51957); assay: NEK4 Kinase panel; conditions: Compound concentration 1.0 uM
[29] = molecular target: Serine/threonine-protein kinase Nek6 (Homo sapiens) (UniProt Q9HC98); assay: NEK6 Kinase panel; conditions: Compound concentration 1.0 uM
[30] = molecular target: Phosphatidylinositol 4,5-bisphosphate 3-kinase catalytic subunit gamma isoform (Homo sapiens) (UniProt P48736); assay: PI3KG Kinase panel; conditions: Compound concentration 1.0 uM
[31] = molecular target: Protein kinase C eta type (Homo sapiens) (UniProt P24723); assay: PKC_eta Kinase panel; conditions: Compound concentration 1.0 uM
[32] = molecular target: Protein kinase C theta type (Homo sapiens) (UniProt Q04759); assay: PKC_theta Kinase panel; conditions: Compound concentration 1.0 uM
[33] = molecular target: Serine/threonine-protein kinase PLK3 (Homo sapiens) (UniProt Q9H4B4); assay: PLK3 Kinase panel; conditions: Compound concentration 1.0 uM
[34] = molecular target: Ribosomal protein S6 kinase alpha-1 (Homo sapiens) (UniProt Q15418); assay: RSK1 Kinase panel; conditions: Compound concentration 1.0 uM
[35] = molecular target: Proto-oncogene tyrosine-protein kinase receptor Ret (Homo sapiens) (UniProt P07949); assay: Ret Kinase panel; conditions: Compound concentration 1.0 uM
[36] = molecular target: Tyrosine-protein kinase Tec (Homo sapiens) (UniProt P42680); assay: TEC Kinase panel; conditions: Compound concentration 1.0 uM
[37] = molecular target: Testis-specific serine/threonine-protein kinase 1 (Homo sapiens) (UniProt Q9BXA7); assay: TSSK1 Kinase panel; conditions: Compound concentration 1.0 uM
[38] = molecular target: Non-receptor tyrosine-protein kinase TYK2 (Homo sapiens) (UniProt P29597); assay: TYK2 Kinase panel; conditions: Compound concentration 1.0 uM
[39] = molecular target: Wee1-like protein kinase (Homo sapiens) (UniProt P30291); assay: WEE1 Kinase panel; conditions: Compound concentration 1.0 uM
[40] = molecular target: Mitogen-activated protein kinase kinase kinase 20 (Homo sapiens) (UniProt Q9NYL2); assay: ZAK Kinase panel; conditions: Compound concentration 1.0 uM
[41] = molecular target: Tyrosine-protein kinase ZAP-70 (Homo sapiens) (UniProt P43403); assay: ZAP-70 Kinase panel; conditions: Compound concentration 1.0 uM
[42] = molecular target: 5-hydroxytryptamine receptor 2A (Homo sapiens) (UniProt P28223); conditions: Compound concentration 10.0 uM
[43] = molecular target: Beta-1 adrenergic receptor (Homo sapiens) (UniProt P08588); conditions: Compound concentration 10.0 uM
[44] = molecular target: Muscarinic acetylcholine receptor M2 (Homo sapiens) (UniProt P08172); conditions: Compound concentration 10.0 uM
Rattus norvegicus = species: Rattus norvegicus; conditions: Compound concentration 10.0 uM
[45] = molecular target: Sigma non-opioid intracellular receptor 1 (Homo sapiens) (UniProt Q99720); conditions: Compound concentration 10.0 uM
Sequence of Sigma non-opioid intracellular receptor 1 (Homo sapiens) (Q99720 whole entry): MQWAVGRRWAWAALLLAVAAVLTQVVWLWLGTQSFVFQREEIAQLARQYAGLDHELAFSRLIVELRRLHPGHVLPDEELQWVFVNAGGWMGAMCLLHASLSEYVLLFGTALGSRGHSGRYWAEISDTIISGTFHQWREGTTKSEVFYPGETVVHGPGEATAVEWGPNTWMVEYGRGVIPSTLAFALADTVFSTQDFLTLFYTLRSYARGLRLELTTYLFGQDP

Sequence of Serine/threonine-protein kinase Nek4 (Homo sapiens) (P51957 whole entry, looked up): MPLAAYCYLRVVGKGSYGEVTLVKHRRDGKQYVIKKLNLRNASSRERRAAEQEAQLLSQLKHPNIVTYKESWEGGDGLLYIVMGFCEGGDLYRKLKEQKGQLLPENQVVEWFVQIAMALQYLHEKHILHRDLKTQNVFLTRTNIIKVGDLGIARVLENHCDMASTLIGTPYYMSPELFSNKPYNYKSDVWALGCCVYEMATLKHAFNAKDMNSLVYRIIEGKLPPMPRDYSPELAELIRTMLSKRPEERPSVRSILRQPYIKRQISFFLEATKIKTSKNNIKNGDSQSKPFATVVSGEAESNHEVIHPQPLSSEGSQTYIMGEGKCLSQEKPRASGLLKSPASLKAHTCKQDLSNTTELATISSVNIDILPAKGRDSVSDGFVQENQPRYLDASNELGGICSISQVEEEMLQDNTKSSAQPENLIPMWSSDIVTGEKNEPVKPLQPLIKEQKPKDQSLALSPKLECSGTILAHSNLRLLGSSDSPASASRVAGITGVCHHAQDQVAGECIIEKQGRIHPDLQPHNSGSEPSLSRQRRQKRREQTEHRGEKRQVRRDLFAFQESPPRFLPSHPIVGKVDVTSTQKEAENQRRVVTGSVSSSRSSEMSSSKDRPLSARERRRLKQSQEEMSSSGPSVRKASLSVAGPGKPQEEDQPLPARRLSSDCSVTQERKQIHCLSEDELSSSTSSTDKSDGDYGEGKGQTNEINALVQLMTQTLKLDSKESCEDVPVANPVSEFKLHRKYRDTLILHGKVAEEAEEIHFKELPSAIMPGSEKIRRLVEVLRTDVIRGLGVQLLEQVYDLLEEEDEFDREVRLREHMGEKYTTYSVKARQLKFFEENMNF
Sequence of Muscarinic acetylcholine receptor M2 (Homo sapiens) (P08172 whole entry): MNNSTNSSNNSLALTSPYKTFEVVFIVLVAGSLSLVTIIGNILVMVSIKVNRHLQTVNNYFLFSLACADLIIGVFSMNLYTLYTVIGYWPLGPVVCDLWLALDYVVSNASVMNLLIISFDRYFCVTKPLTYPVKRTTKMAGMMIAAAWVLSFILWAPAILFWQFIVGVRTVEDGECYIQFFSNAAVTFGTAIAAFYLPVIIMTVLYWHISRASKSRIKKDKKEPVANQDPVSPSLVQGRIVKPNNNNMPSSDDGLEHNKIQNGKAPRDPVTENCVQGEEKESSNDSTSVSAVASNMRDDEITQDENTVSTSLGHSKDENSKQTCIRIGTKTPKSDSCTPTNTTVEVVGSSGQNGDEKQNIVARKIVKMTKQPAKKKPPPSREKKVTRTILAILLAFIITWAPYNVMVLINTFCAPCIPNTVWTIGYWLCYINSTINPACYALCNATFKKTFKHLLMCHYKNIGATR
Sequence of Megakaryocyte-associated tyrosine-protein kinase (Homo sapiens) (P42679 whole entry): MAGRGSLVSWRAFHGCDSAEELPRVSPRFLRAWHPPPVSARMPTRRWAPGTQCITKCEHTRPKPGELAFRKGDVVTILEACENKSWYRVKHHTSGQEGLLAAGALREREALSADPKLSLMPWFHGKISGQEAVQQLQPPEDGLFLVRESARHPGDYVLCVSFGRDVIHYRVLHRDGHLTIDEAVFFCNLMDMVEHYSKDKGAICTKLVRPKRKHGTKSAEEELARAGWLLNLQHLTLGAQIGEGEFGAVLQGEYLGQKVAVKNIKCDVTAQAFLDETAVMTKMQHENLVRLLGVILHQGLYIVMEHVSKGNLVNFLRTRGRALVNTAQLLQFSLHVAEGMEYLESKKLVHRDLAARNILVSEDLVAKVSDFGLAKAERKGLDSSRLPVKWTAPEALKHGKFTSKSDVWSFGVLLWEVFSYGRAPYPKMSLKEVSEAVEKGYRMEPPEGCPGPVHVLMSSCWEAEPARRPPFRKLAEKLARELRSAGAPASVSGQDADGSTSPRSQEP
Sequence of Protein-tyrosine kinase 6 (Homo sapiens) (Q13882 whole entry, looked up): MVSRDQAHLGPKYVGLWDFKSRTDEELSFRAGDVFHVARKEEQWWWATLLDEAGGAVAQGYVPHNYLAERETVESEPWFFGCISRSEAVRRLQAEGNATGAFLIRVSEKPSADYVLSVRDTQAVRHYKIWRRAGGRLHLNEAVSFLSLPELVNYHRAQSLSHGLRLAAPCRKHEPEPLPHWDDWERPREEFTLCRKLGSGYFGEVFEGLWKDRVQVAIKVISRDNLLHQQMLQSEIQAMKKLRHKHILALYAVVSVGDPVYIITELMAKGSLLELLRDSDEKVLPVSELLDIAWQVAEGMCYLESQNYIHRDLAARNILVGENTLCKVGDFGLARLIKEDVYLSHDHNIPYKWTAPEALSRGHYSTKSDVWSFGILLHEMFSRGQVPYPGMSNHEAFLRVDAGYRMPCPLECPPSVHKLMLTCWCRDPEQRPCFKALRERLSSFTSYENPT
Sequence of Phosphatidylinositol 4,5-bisphosphate 3-kinase catalytic subunit gamma isoform (Homo sapiens) (P48736 whole entry, looked up, canonical isoform): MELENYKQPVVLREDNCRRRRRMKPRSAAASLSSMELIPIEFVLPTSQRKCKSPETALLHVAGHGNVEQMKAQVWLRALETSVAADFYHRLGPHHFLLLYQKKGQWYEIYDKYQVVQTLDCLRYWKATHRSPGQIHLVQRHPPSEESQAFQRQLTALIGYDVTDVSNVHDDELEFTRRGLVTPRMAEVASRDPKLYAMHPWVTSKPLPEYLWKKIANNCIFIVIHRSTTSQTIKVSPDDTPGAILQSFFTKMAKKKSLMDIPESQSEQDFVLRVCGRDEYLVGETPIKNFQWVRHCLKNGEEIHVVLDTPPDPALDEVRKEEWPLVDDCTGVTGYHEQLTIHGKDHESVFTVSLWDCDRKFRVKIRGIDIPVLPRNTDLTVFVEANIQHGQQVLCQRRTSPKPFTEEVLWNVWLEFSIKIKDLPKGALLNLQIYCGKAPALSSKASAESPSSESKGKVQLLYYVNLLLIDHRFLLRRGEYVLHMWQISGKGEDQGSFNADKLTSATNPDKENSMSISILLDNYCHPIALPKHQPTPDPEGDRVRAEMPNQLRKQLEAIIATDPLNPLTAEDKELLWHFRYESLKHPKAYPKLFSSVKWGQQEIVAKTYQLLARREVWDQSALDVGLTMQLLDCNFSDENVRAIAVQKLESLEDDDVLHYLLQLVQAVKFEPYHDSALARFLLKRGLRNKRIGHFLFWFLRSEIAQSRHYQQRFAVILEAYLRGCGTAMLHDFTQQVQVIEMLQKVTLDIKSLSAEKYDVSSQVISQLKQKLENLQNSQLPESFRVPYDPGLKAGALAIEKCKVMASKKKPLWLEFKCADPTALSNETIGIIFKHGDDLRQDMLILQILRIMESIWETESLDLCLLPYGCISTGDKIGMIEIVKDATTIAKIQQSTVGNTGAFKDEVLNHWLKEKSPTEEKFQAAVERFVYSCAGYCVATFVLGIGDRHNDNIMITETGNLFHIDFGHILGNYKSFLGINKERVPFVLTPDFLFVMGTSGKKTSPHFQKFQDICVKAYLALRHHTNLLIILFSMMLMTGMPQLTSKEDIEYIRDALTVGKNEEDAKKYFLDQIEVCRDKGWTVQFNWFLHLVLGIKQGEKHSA
Sequence of Insulin-like growth factor 1 receptor (Homo sapiens) (P08069 31-736 limits assumed): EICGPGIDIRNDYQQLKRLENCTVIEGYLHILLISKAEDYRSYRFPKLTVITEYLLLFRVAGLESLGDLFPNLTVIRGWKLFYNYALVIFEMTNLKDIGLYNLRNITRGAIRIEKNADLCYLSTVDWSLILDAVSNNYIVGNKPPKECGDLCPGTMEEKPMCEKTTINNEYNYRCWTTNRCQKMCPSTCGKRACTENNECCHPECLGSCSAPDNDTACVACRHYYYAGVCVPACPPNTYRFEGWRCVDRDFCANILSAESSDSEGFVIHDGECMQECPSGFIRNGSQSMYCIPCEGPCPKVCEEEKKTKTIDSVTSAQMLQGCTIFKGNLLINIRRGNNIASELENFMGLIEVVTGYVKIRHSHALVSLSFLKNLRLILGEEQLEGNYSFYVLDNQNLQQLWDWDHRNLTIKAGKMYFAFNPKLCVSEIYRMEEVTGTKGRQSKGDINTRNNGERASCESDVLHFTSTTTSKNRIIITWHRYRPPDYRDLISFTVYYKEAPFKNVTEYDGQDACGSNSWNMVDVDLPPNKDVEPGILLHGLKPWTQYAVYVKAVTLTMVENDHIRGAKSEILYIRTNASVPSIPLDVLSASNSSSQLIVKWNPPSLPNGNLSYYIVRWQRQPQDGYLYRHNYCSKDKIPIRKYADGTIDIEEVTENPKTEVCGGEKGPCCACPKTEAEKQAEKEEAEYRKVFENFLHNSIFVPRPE
Sequence of Insulin-like growth factor 1 receptor (Homo sapiens) (P08069 741-1367 limits assumed): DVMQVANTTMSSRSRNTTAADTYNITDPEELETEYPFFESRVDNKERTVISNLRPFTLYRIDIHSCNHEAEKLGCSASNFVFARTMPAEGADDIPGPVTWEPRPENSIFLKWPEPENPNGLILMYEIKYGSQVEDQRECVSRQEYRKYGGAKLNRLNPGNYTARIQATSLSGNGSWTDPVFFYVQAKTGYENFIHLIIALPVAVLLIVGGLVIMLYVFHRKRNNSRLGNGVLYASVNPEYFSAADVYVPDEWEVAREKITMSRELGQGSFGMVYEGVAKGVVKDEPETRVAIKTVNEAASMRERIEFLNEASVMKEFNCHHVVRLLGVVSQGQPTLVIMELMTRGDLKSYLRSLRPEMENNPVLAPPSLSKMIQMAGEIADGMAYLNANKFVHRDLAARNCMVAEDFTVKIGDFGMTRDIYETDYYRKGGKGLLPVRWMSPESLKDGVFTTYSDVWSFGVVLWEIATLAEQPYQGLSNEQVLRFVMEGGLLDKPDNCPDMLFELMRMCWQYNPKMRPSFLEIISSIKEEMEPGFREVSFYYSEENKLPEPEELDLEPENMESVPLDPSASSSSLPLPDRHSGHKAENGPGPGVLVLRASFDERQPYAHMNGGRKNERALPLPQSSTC

CC(C)(O)[C@H](F)CN1Cc2cc(NC(=O)c3cnn4cccnc34)c(N3CCOCC3)cc2C1=O
509 nM: Ki [1]
inactive: inhibition [3] -1% | inhibition [4] 3.5% | inhibition [5] 9.8% | inhibition [6] 21.3% | inhibition [7] -0.5% | inhibition [8] 42% | inhibition [9] 3% | inhibition [10] 10.5% | inhibition [11] 3% | inhibition [12] -0.5% | inhibition [13] 1.5% | inhibition [14] 7.5% | inhibition [15] 47.8% | inhibition [16] -0% | inhibition [17] 15.5% | inhibition [18] 7.8% | inhibition [19] 2.5% | inhibition [20] -4% | inhibition [21] 11.5% | inhibition [22] 101% | inhibition [23] 3% | inhibition [24] 6% | inhibition [25] 6.5% | inhibition [26] -2% | inhibition [27] -2% | inhibition [28] 10% | inhibition [29] 7% | inhibition [30] 46.5% | inhibition [31] 8% | inhibition [32] 1% | inhibition [33] -3% | inhibition [34] 7.5% | inhibition [35] 31.5% | inhibition [36] 0.5% | inhibition [37] 5% | inhibition [38] 53.5% | inhibition [39] 5.5% | inhibition [40] 5.5% | inhibition [41] -6.5% | inhibition [42] -7.43% | inhibition [43] 1.93% | inhibition [44] -9.33% | inhibition (Rattus norvegicus) -2.15% | inhibition [45] 9.11%
active: IC50 [2] 290 nM

From ChEMBL document CHEMBL4879554, “Data for DCP probe GNE-2256” (2021)
